According to PMC12655579, “Cocrystallization of Ezetimibe with Organic Acids: Stoichiometric Optimization for Improved Solubility and Bioavailability” (Pharmaceutics, 2025):

Assays:
[1] = In vivo pharmacokinetics after single oral gavage; conditions: rat, male Sprague Dawley rats, fasted, plasma, table prints dose 10 mg/kg for all groups (methods: CRYS101 10 mg/kg, CRYS102-104 30 mg/kg)
Procedure: The stock standard solution was prepared by dissolving ezetimibe at 0.5 mg/mL in 40% MeOH. The absorbance of the standards was measured at 233 nm using UV-VIS spectrophotometer (Optizen pop, Mecasys®, Seoul, Republic of Korea). The bioanalysis was performed using validated LC-MS/MS methods with MRM detection (details in Supplementary Materials). The method was developed using an Agilent 1290 Infinity II BioLC system coupled with an Agilent 6495D Triple-Quadrupole mass spectrometer, employing electrospray ionization (ESI). Chromatographic separation was achieved on a Kintex C18 column (2.6 μm, 100 × 3 mm) maintained at 30 °C, using an isocratic mobile phase of water-acetonitrile (20:80 v/v) at 0.25 mL/min flow rate. The run time was optimized to 5 min with a 2 μL injection volume. Mass spectrometric detection utilized multiple reaction monitoring (MRM) in negative polarity mode for ezetimibe ([M − H]^− m/z 408.1 → 271.1) and positive mode for the internal standard itraconazole ([M + H]^+ m/z 705.2 → 391.6). Detailed description is included in the Supplementary Materials.
In vivo pharmacokinetic profile of ezetimibe cocrystal formulations was assessed in male Sprague Dawley rats (n = 4 per group, 7–8-week-old, mean weight 271.1 g). The SD rats were obtained from G-Bio (Gwangju, Republic of Korea). They were maintained under a 12 h light/dark cycle and provided with free access to food and water. The animal experimental protocol was approved by the Institutional Animal Care and Use Committee (IACUC) of Mokpo National University (Mokpo, Republic of Korea; approval no. MNU-IACUC-2025-015).
The rats were fasted overnight before oral administration, and four formulation groups received single oral doses through gavage: Group 1 (CRYS101) at 10 mg/kg and Groups 2–4 (CRYS102-104) at 30 mg/kg. Blood samples (200 μL) were collected from the femoral artery at predetermined time points after the administration. The collected samples were centrifuged at 16,000× g for 5 min at 4 °C, and the plasma was stored at −70 °C until analysis. The plasma samples analyzed using a validated UPLC-MS/MS method with 1 ng/mL lower quantification limit.

[2] = In vitro dissolution (USP apparatus II, paddle); assay type: physicochemical; conditions: 0.45% w/v SLS in 0.05 M acetate buffer pH 4.5, 37 °C
Procedure: The samples were mixed in a 5 mL tube with 2 mL of the solvent at a concentration of 1 mg/mL using a multi-mixer (SLRM-3, Seoulin Biosciences, Pangyo, Republic of Korea) for 48 h at 25 °C. The mixtures were then centrifuged at 13,000 rpm for 10 min (Eppendorf 5425R, Hamburg, Germany) and manually filtered using a 0.45 μm polytetrafluoroethylene (PTFE-H) syringe filter. The absorbance of the filtered samples at 233 nm was measured using a UV-VIS spectrophotometer. Similarly, dissolution was assessed using the USP dissolution apparatus II (paddle) (Varian 705 DS, Cary, NC, USA) at 50 rpm in 500 mL of 0.45% w/v SLS in 0.05 M acetate buffer (pH 4.5) at 37 ± 0.5 °C. The cocrystal samples (equivalent to 10 mg ezetimibe) were weighed and added into the dissolution vessel (n = 3). Aliquots were collected at predetermined time points: 5 min, 10 min, 15 min, 30 min, 45 min, 60 min, 90 min, and 120 min. The displaced volume was replenished with fresh buffer after each sampling. The collected samples were filtered through a 0.45 µm RC syringe filter and subjected to UV-VIS spectrophotometer.

AUC(0-inf) ([1]; SD not determined): 41.8 ng·h/mL | AUC(0-t) ([1]; n = 4/group, mean ± SD): 11 ± 8.63 ng·h/mL | Cmax ([1]; n = 4/group, mean ± SD): 6.73 ± 4.29 ng/mL | Tmax ([1]; n = 4/group, mean ± SD): 1.33 ± 0.76 h | In vitro release at 120 min [2]: 45%
SMILES: O=C1[C@H](CC[C@H](O)c2ccc(F)cc2)[C@@H](c2ccc(O)cc2)N1c1ccc(F)cc1 [Ezetimibe]
